Results: patent publication EP4790049A1, “BIPHENYL TETRAHYDROPYRROLE COMPOUND, PREPARATION METHOD THEREFOR AND USE THEREOF” (Hainan Yinrui Bio-Pharm Co., Ltd., priority 2023, dated 2025)
Counter-ions that a name gives are not always drawn.

Assays:
Human recombinant MAO-A = biological target: T1, Human recombinant MAO-A (Homo sapiens, UniProt P21397); assay: Human recombinant MAO-A inhibitory activity assay (Promega MAO-Glo); type: biochemical; conditions: human recombinant enzyme expressed in Sf 9 cells; substrate tyramine 40 µM; 15 min pre-incubation, 60 min reaction, room temperature; 10 concentrations, duplicate wells
T1 construct: Full-length human recombinant MAO-A and MAO-B proteins were both expressed in Baculovirus infected Sf 9 cells; FLAG (N); host or cells: Baculovirus-infected Sf9 insect cells
T1 sequence (P21397 1-527): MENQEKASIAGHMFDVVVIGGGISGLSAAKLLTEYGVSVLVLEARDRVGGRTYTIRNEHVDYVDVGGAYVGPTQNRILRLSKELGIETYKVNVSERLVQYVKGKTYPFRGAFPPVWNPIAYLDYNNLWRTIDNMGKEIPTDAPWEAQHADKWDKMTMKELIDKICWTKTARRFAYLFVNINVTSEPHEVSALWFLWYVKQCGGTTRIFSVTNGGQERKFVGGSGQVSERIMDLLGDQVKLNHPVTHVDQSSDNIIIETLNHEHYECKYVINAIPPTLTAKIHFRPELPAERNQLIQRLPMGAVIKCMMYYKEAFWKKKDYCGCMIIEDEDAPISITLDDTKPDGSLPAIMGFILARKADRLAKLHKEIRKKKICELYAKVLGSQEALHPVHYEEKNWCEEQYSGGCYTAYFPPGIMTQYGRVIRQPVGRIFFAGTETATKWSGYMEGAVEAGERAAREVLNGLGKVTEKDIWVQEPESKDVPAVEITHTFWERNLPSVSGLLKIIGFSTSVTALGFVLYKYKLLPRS
Protocol: (§1) Full-length human recombinant MAO-A and MAO-B proteins were both expressed in Baculovirus infected Sf 9 cells, containing an N-terminal FLAG tag, with a molecular weight of 59.8 kDa. […] A 40 µM substrate was incubated with the MAO protein at room temperature for 1 hour. The product generated by the oxidative deamination reaction between the MAO and the substrate was incubated with a fluorescent luminescent agent for 0.5 hours, and then the activity of the MAO was detected using the Promega MAO-Glo TM detection method.
(§2) Human recombinant monoamine oxidase A/B expressed in Sf 9 cells was used. During the experiment, the recombinant monoamine oxidase A/B was first dissolved in a HEPES buffer (0.8% NaCl, 0.037% KCl, 0.0135% Na2HPO4·2H2O, 0.1% Glucan, 0.5% HEPES, pH 7.0). 10 µL of the monoamine oxidase A/B solution was added to a 384-well plate, followed by the addition of the test compound (final DMSO concentration of 1%) in each well for 10 concentration gradients. […] The plate was incubated at room temperature for 15 minutes. 10 µL of a substrate solution (40 µM, with tyramine and benzylamine as substrates for MAO-A and MAO-B, respectively) was added to each well, followed by incubation at room temperature for 60 minutes. Subsequently, 20 µL of luciferin detection reagent was added to each well, mixed thoroughly, and incubated at room temperature for 20 minutes to generate a stable fluorescent signal. The fluorescent signal was read using a fluorescence microplate reader, and the values were expressed as relative light units (RLU). The experiment was designed with duplicate wells, and the average value was used to calculate the enzyme activity inhibition rate using the following formula: Inh% = (Max-Signal) / (Max-Min)∗100 [formula] • where Max is the value detected at the maximum concentration of the sample, Min is the value detected at the minimum concentration of the sample, and Signal is the value detected at the current concentration of the sample. […] Table 1. Activity Data IC50 (nM)

Human recombinant MAO-B = biological target: T2, Human recombinant MAO-B (Homo sapiens, UniProt P27338); assay: Human recombinant MAO-B inhibitory activity assay (Promega MAO-Glo); type: biochemical; conditions: human recombinant enzyme expressed in Sf 9 cells; substrate benzylamine 40 µM; 15 min pre-incubation, 60 min reaction, room temperature; 10 concentrations, duplicate wells
T2 construct: Full-length human recombinant MAO-A and MAO-B proteins were both expressed in Baculovirus infected Sf 9 cells; FLAG (N); host or cells: Baculovirus-infected Sf9 insect cells
T2 sequence (P27338 1-520): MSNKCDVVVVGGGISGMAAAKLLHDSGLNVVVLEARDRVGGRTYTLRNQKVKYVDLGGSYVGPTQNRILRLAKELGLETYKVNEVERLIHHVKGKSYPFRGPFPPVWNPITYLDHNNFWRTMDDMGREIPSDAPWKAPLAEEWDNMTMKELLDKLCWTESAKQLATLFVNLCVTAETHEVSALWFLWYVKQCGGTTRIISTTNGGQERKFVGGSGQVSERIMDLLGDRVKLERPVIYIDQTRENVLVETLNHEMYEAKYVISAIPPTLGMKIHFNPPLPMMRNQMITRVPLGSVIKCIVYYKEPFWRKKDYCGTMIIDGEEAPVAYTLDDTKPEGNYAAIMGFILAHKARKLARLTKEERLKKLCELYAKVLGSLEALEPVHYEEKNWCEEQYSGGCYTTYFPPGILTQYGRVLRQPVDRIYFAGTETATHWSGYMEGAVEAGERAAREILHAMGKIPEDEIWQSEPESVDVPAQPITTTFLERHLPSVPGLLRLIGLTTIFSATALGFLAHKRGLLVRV
Protocol: as §1, §2

SMILES	IC50 (Human recombinant MAO-A) [nM]	IC50 (Human recombinant MAO-B) [nM]
NC(=O)[C@@H]1CC[C@H](c2ccc(-c3cccc(C(F)(F)F)c3)cc2)N1 [Compound 4, hydrochloride]	> 10000	477
CN1[C@@H](c2ccc(-c3ccc(C(F)(F)F)cc3)cc2)CC[C@H]1C(N)=O [Compound 26]	> 10000	3670
N#Cc1cc([C@H]2CC[C@@H](C(N)=O)N2)ccc1-c1ccc(C(F)(F)F)cc1 [Compound 23, hydrochloride]	9830	2530
NC(=O)[C@@H]1CC[C@H](c2cc(F)c(-c3ccc(C(F)(F)F)cc3)c(F)c2)N1 [Compound 22, hydrochloride]	> 10000	434
O=C(O)[C@@H]1CC[C@H](c2ccc(-c3ccc(F)cc3)cc2)N1 [Compound 31, hydrochloride]	> 10000	533
CNC(=O)[C@@H]1CC[C@H](c2ccc(-c3ccc(C(F)(F)F)cc3)cc2)N1 [Compound 27, hydrochloride]	> 10000	7530
NC(=O)[C@@H]1CC[C@H](c2ccc(-c3ccc(F)cc3)cc2)N1 [Compound 2, hydrochloride]	> 10000	1510
NC(=O)[C@H]1CC[C@H](c2ccc(-c3ccc(C(F)(F)F)cc3)cc2)N1 [Compound 7, hydrochloride]	> 10000	147
CN(C)C(=O)[C@@H]1CC[C@H](c2ccc(-c3ccc(C(F)(F)F)cc3)cc2)N1 [Compound 28, hydrochloride]	> 10000	1000
NC(=O)c1ccc(-c2ccc([C@H]3CC[C@@H](C(N)=O)N3)cc2)cc1 [Compound 14, hydrochloride]	> 10000	991
COc1cc(-c2ccc(C(F)(F)F)cc2)ccc1[C@H]1CC[C@@H](C(N)=O)N1 [Compound 20, hydrochloride]	> 10000	998
CC1C[C@H](c2ccc(-c3ccc(C(F)(F)F)cc3)cc2)N[C@@H]1C(N)=O (some centres unmarked) [Compound 25, hydrochloride]	> 10000	1510
NC(=O)[C@@H]1CC[C@H](c2ccc(-c3cccc(F)c3)cc2)N1 [Compound 5, hydrochloride]	> 10000	3050
NC(=O)[C@H]1CC[C@@H](c2ccc(-c3ccc(C(F)(F)F)cc3)cc2)N1 [Compound 8, hydrochloride]	9970	562
COc1ccc(-c2ccc([C@H]3CC[C@@H](C(N)=O)N3)cc2)cc1 [Compound 18, hydrochloride]	9110	3570
NC(=O)[C@@H]1CC[C@H](c2ccc(-c3ccc(C(=O)O)cc3)cc2)N1 [Compound 13, hydrochloride]	> 10000	1540

SMILES	IC50 (Human recombinant MAO-A) [nM]	IC50 (Human recombinant MAO-B) [nM]
N#Cc1ccc(-c2ccc([C@H]3CC[C@@H](C(N)=O)N3)cc2)cc1 [Compound 11, hydrochloride]	9360	1340
COC(=O)[C@@H]1CC[C@H](c2ccc(-c3ccc(F)cc3)cc2)N1 [Compound 32, hydrochloride]	> 10000	1990
CCN1[C@@H](c2ccc(-c3ccc(C(F)(F)F)cc3)cc2)CC[C@H]1C(N)=O [Compound 30]	> 10000	562
NC(=O)[C@@H]1CC[C@H](c2ccc(-c3ccccc3C(F)(F)F)cc2)N1 [Compound 9, hydrochloride]	> 10000	890
Cc1cc(-c2ccc(C(F)(F)F)cc2)ccc1[C@H]1CC[C@@H](C(N)=O)N1 [Compound 19, hydrochloride]	> 10000	891
NC(=O)[C@@H]1CC[C@H](c2ccc(-c3ccc([N+](=O)[O-])cc3)cc2)N1 [Compound 12, hydrochloride]	6320	796
NC(=O)[C@@H]1CC[C@H](c2ccc(-c3ccc(C(F)(F)F)cc3)cc2)N1 [Compound 1, hydrochloride]	> 10000	83
NC(=O)[C@@H]1CC[C@H](c2ccc(-c3ccc(OC(F)(F)F)cc3)cc2)N1 [Compound 3, hydrochloride]	> 10000	199
NC(=O)[C@@H]1CC[C@@H](c2ccc(-c3ccc(C(F)(F)F)cc3)cc2)N1 [Compound 6, hydrochloride]	> 10000	104
NC(=O)[C@@H]1CC[C@H](c2c(F)cc(-c3ccc(C(F)(F)F)cc3)cc2F)N1 [Compound 24, hydrochloride]	> 10000	773
NC(=O)[C@@H]1CC[C@H](c2ccc(-c3ccc(Cl)cc3)cc2)N1 [Compound 10, hydrochloride]	83300	564
Cc1ccc(-c2ccc([C@H]3CC[C@@H](C(N)=O)N3)cc2)cc1 [Compound 17, (2S,5R)-5-[4-(4-methylphenyl)phenyl]-1H-pyrrole-2-carboxamide hydrochloride]	6330	710
N#Cc1cc(-c2ccc(C(F)(F)F)cc2)ccc1[C@H]1CC[C@@H](C(N)=O)N1 [Compound 21, hydrochloride]	> 10000	1360
COC(=O)c1ccc(-c2ccc([C@H]3CC[C@@H](C(N)=O)N3)cc2)cc1 [Compound 15, hydrochloride]	> 10000	784
NC(=O)[C@@H]1CC[C@H](c2ccc(-c3ccccc3)cc2)N1 [Compound 16, hydrochloride]	> 10000	7530
